Results reported in patent publication US11787785B2 (NOVARTIS AG, priority 2021, dated 2023).
pEC50: −log10 of the molar value. Where two headings read alike, the source gives them in different places.

Tests used:
[1] = biological target: T1, WIZ protein (HiBit-WIZ fusion protein) (Homo sapiens, UniProt O95785+Q96SW2); test: Quantification of WIZ protein levels in HiBit tag fusion protein assay (WIZ HiBit assay in 293T cells); type: cell-based; set-up: remaining activity / Dmax: dose or concentration left out as unconfirmed; conditions: for Dmax at 25 µM / remaining activity at 25 µM / Dmax / remaining activity: HEK-293T; for Dmax at 25 µM: 100 − Amax; for Dmax at 25 µM / remaining activity at 25 µM: 293T cells; for Dmax at 25 µM / Dmax: read-out: % degradation of WIZ (100 − Amax); for remaining activity at 25 µM: DMSO-normalized, curve-fitted percentage of WIZ-HiBit remaining at 25 uM; for remaining activity at 25 µM / remaining activity: read-out: WIZ Amax; for DC50: WIZ HiBit assay in 293T cells, 10-point, 5-fold dose response, highest concentration 25 μM, about 18 hours, read-out: WIZ AC50
T1 construct: expressed in transfected cells
Method in brief: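 Luminescence after LgBit complementation quantified remaining HiBit-WIZ in lysates of single-copy stable 293T lines. Cells dosed ~18 h at 37 °C with 10-point, 5-fold dilutions (highest 25 μM); DMSO set to 100%, fitted curve gave % remaining at 25 μM (Amax).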

[2] = system: Fetal Hemoglobin (HbF); test: Small molecule HbF induction assay (mPB CD34+ cells erythroid differentiated, flow cytometry); type: cell-based; conditions: Homo sapiens, 168 h; for Emax: 7 days with compound, baseline DMSO approximately 30-40%, read-out: HbF Amax (highest percentage of cells staining positive for HbF in the fitted dose-response curve); for pEC50: erythroid differentiated in presence of compound for 7 days, flow cytometry
Method: Cryopreserved primary human CD34^+ hematopoietic stem and progenitor cells were obtained from AllCells, LLC. The CD34^+ cells were isolated from the peripheral blood of healthy donors after mobilization by administration of granulocyte colony-stimulating factor. Cells were differentiated ex vivo toward the erythroid lineage using a 2-phase culture method. In the first phase, cells were cultured in StemSpan™ Serum-Free Expansion Media (SFEM) ([…] Technologies Inc.) supplemented with rhSCF (50 ng/mL, Peprotech®, Inc.), rhIL-6 (50 ng/mL, Peprotech®, Inc.), rhIL-3 (50 ng/mL, Peprotech®, Inc.), and rhFlt3L (50 ng/mL, Peprotech®, Inc.), and 1× antibiotic-antimycotic (Life Technologies, Thermo Fisher Scientific) for 6 days at 37° C. with 5% CO2. During the second phase, cells were cultured in erythroid differentiation media at 5,000 cells/mL in the presence of compound for 7 days at 37° C. with 5% CO2. Erythroid Differentiation Media is comprised of IMDM (Life Technologies) supplemented with insulin (10 μg/mL, Sigma Aldrich), heparin (2 U/mL Sigma Aldrich), holo-transferrin (330 μg/mL, Sigma Aldrich), human serum AB (5%, Sigma Aldrich), hydrocortisone (1 μM, […] Technologies), rhSCF (100 ng/mL, Peprotech®, Inc.), rhIL-3 (5 ng/mL, Peprotech®, Inc.), rhEPO (3 U/mL, Peprotech®, Inc.), and 1× antibiotic-antimycotic. All compounds were dissolved and diluted into dimethylsulfoxide (DMSO) and were added to culture media for a final concentration of 0.3% DMSO for testing in a 7-point, 1:3 dilution series starting at 30 uM.
Staining and Flow Cytometry
For viability analysis, samples were washed and resuspended in phosphate-buffered saline (PBS) and stained with LIVE/DEAD™ Fixable Violet Dead Cell Stain Kit (Life Technologies, L34963) for 20 minutes. Cells were then washed again with PBS and resuspended in PBS supplemented with 2% fetal bovine serum (FBS), and 2 mM EDTA to prepare for cell surface marker analysis. Cells were labeled with allophycocyanin-conjugated CD235a (1:100, BD Biosciences, 551336) and Brilliant Violet-conjugated CD71 (1:100, BD Biosciences, 563767) antibodies for 20 minutes. For analysis of cytoplasmic Fetal Hemoglobin (HbF), cells were fixed and permeabilized using the Fixation (BioLegend®, 420801) and Permeabilization Wash (BioLegend®, 421002) Buffers according to the manufacturer's protocol. During the permeabilization step, cells were stained with phycoerythrin-conjugated or FITC-conjugated HbF-specific antibody (1:10-1:25, Invitrogen™, MHFH04-4) for 30 minutes. Stained cells were washed with phosphate-buffered saline before analysis on the FACSCanto™ II flow cytometer or LSRFortessa™ (BD Biosciences). Data analysis was performed with FIowJo™ Software (BD Biosciences).
HbF Induction Activity of Compounds (Table 2)
mPB CD34+ cells were expanded for 6 days, then erythroid differentiated in the presence of compound for 7 days. Cells were fixed, stained and analyzed by flow cytometry. […] HbF Amax=the highest percentage of cells staining positive for HbF (% HbF+ cells) in the fitted dose-response curve. The baseline % HbF+ cells for DMSO-treated cells is approximately 30-40%.

[3] = system: HbF; conditions: in vivo; cited from earlier work
[4] = system: HbF; conditions: ex vivo, human primary erythroid cells; cited from earlier work

T1 sequence (O95785 whole entry, the tested form may be a part): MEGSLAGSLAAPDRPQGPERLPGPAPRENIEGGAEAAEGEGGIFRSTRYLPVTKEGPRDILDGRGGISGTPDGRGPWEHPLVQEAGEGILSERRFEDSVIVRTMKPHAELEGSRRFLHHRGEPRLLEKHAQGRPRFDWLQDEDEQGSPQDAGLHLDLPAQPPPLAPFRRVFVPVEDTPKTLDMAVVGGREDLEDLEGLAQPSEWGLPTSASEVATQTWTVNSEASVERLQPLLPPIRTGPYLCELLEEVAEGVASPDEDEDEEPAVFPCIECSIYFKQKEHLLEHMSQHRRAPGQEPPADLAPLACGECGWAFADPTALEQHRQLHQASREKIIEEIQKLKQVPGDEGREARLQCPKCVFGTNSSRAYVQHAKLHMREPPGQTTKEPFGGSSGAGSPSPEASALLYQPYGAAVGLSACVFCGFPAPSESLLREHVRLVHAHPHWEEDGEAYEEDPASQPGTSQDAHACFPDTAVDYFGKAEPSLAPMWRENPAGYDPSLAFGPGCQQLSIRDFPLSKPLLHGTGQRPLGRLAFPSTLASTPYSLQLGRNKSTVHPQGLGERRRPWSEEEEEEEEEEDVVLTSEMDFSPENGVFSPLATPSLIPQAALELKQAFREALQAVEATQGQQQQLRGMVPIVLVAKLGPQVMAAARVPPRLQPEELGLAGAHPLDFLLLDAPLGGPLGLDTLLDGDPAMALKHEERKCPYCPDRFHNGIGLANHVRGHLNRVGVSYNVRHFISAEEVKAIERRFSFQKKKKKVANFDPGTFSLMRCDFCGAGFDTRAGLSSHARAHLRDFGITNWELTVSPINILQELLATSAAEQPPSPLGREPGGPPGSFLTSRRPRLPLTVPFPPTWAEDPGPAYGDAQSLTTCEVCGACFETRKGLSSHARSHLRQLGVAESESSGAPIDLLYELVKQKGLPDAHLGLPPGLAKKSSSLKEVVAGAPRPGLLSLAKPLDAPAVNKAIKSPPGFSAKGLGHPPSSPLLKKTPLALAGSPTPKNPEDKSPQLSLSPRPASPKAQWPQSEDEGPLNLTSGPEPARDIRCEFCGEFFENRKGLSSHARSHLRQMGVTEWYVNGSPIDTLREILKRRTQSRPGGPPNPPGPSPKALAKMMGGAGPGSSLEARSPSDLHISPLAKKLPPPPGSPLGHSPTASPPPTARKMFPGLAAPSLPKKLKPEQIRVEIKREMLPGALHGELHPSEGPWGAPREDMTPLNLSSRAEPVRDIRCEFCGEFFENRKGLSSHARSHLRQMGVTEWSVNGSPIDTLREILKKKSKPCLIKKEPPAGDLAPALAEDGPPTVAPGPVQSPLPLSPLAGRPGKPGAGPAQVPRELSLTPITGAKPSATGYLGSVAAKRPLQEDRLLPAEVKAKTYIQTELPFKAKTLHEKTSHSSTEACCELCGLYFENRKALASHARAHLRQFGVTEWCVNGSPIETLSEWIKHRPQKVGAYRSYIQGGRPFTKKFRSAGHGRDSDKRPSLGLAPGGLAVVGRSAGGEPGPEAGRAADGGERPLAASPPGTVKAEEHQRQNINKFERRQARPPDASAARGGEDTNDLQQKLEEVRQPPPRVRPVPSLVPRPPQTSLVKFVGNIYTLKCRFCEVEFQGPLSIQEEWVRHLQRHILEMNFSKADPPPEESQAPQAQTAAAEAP
T1 sequence (Q96SW2 whole entry, the tested form may be a part): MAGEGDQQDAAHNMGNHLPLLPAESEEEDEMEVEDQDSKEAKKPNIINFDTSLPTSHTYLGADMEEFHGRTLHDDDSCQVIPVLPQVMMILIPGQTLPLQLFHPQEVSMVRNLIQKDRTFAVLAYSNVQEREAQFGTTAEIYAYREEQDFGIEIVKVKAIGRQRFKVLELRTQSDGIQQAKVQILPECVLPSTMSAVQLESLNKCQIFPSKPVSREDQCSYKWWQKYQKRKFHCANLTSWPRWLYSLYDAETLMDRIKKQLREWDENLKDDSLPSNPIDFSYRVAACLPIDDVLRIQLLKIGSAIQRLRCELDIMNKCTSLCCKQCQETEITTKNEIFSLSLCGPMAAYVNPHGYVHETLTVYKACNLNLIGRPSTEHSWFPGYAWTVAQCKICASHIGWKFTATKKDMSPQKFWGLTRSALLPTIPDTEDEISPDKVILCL
T1 sequence (Q16531 whole entry partner, the tested form may be a part): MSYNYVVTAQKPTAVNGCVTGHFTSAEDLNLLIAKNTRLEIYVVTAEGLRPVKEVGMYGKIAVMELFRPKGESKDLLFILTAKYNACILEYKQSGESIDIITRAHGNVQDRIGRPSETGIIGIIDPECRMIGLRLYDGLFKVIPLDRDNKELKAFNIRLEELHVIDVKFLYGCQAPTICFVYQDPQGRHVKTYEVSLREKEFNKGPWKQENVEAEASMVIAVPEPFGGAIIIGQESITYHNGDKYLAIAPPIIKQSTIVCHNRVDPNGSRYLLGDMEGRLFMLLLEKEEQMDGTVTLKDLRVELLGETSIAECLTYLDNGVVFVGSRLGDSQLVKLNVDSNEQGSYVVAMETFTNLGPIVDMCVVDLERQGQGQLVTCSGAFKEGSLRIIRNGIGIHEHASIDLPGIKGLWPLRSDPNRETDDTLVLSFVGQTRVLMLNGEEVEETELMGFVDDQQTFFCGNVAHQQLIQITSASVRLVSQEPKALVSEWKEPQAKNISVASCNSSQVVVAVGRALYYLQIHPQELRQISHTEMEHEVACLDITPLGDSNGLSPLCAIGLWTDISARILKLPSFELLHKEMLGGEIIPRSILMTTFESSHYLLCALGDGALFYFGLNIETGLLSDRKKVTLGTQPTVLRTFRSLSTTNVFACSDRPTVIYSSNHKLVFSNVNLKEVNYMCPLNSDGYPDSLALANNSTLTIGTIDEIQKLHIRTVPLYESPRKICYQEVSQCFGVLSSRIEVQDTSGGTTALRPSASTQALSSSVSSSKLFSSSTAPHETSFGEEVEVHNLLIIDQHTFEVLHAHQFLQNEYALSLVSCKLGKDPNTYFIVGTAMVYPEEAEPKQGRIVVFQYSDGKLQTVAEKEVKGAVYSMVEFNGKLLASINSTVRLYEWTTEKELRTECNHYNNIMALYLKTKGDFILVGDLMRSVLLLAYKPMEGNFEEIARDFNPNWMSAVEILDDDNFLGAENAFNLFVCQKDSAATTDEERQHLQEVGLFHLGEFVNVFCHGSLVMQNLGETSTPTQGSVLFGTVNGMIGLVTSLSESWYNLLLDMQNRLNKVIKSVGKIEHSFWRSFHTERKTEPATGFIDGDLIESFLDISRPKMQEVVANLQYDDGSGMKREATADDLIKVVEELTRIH

| SMILES | Dmax at 25 µM [1] | remaining activity at 25 µM [1] | DC50 [1] | Emax [2] | pEC50 [2] | HbF induction [3] | HbF induction [4] | Dmax [1] | remaining activity [1] |
| --- | --- | --- | --- | --- | --- | --- | --- | --- | --- |
| CC(C)CN1CC[C@@H](Cc2ccn3ncc(N4CCC(=O)NC4=O)c3c2)C[C@@H]1C [Example 145] | 84% | 16% | 0.025 µM | 76% | 7.52 | – | – | – | – |
| Nc1cccc2c1C(=O)N(C1CCC(=O)NC1=O)C2=O (stereo not drawn) [pomalidomide] | – | – | – | – | – | induce HbF | induce HbF | – | – |
| O=C1CCN(c2cnn3ccc(CN4CCN(CC5CCCCC5)CC4)cc23)C(=O)N1 [Example 156, 1-(5-((4-(cyclohexylmethyl)piperazin-1-yl)methyl)pyrazolo[1,5-a]pyridin-3-yl)dihydropyrimidine-2,4(1H,3H)-dione] | – | – | 0.023 µM | 81% | 7.92 | – | – | 86% | 14% |
| CC(C)CN1CCN(Cc2ccn3ncc(N4CCC(=O)NC4=O)c3c2)C[C@@H]1C [Example 203, (S)-1-(5-((4-isobutyl-3-methylpiperazin-1-yl)methyl)pyrazolo[1,5-a]pyridin-3-yl)dihydropyrimidine-2,4(1H,3H)-dione] | 84% | 16% | 0.025 µM | 82% | 7.35 | – | – | – | – |
| C[C@H]1C[C@H](Cc2ccn3ncc(N4CCC(=O)NC4=O)c3c2)CCN1CC1CCOCC1 [Example 142] | 89% | 11% | 0.011 µM | 89% | 7.42 | – | – | – | – |
| CC(C)CN1CCC(Cc2ccn3ncc(N4CCC(=O)NC4=O)c3c2)CC1 [Example 109, 1-(5-((1-isobutylpiperidin-4-yl)methyl)pyrazolo[1,5-a]pyridin-3-yl)dihydropyrimidine-2,4(1H,3H)-dione] | 82% | 18% | 0.039 µM | 77% | 6.89 | – | – | – | – |
| CO[C@H]1CC[C@H](CN2CCN(Cc3ccn4ncc(N5CCC(=O)NC5=O)c4c3)C[C@@H]2C)CC1 [Example 210, 1-(5-(((S)-4-(((1r,4S)-4-methoxycyclohexyl)methyl)-3-methylpiperazin-1-yl)methyl)pyrazolo[1,5-a]pyridin-3-yl)dihydropyrimidine-2,4(1H,3H)-dione] | 86% | 14% | 0.016 µM | 86% | 7.19 | – | – | – | – |
| CCS(=O)(=O)N1CC[C@@H](Cc2ccn3ncc(N4CCC(=O)NC4=O)c3c2)C[C@@H]1C [Example 283, 1-(5-(((2S,4R)-1-(ethylsulfonyl)-2-methylpiperidin-4-yl)methyl)pyrazolo[1,5-a]pyridin-3-yl)dihydropyrimidine-2,4(1H,3H)-dione] | – | – | 0.029 µM | 61% | 6.90 | – | – | 80% | 19% |
| C[C@H]1C[C@H](Cc2ccn3ncc(N4CCC(=O)NC4=O)c3c2)CCN1CC1CCC(F)(F)CC1 [Example 141, 1-(5-(((2S,4R)-1-((4,4-difluorocyclohexyl)methyl)-2-methylpiperidin-4-yl)methyl)pyrazolo[1,5-a]pyridin-3-yl)dihydropyrimidine-2,4(1H,3H)-dione] | 91% | 9% | 0.002 µM | 90% | 8.22 | – | – | – | – |
| C[C@H]1CN(Cc2ccn3ncc(N4CCC(=O)NC4=O)c3c2)CCN1CC1CCC(F)(F)CC1 [Example 207] | 86% | 14% | 0.014 µM | 85% | 7.05 | – | – | – | – |
| CO[C@H]1CC[C@H](CN2CCN(Cc3ccn4ncc(N5CCC(=O)NC5=O)c4c3)CC2)CC1 [Example 179, 1-(5-((4-(((1r,4r)-4-methoxycyclohexyl)methyl)piperazin-1-yl)methyl)pyrazolo[1,5-a]pyridin-3-yl)dihydropyrimidine-2,4(1H,3H)-dione] | 82% | 18% | 0.049 µM | 79% | 7.13 | – | – | – | – |
| C[C@H]1C[C@H](Cc2ccn3ncc(N4CCC(=O)NC4=O)c3c2)CCN1C(=O)C1CC1 [Example 287, 1-(5-(((2S,4R)-1-(cyclopropanecarbonyl)-2-methylpiperidin-4-yl)methyl)pyrazolo[1,5-a]pyridin-3-yl)dihydropyrimidine-2,4(1H,3H)-dione] | – | – | 0.015 µM | 63% | 7.22 | – | – | 81% | 19% |
| O=C1CCN(c2cnn3ccc(CN4CCN(CC5CCOCC5)CC4)cc23)C(=O)N1 [Example 160] | 82% | 18% | 0.045 µM | 84% | 6.00 | – | – | – | – |
| O=C1CCN(c2cnn3ccc(CC4CCN(Cc5cccnc5)CC4)cc23)C(=O)N1 [Example 17, 1-(5-((1-(pyridin-3-ylmethyl)piperidin-4-yl)methyl)pyrazolo[1,5-a]pyridin-3-yl)dihydropyrimidine-2,4(1H,3H)-dione] | 82% | 18% | 0.048 µM | 80% | 6.58 | – | – | – | – |
| Nc1cccc2c1CN(C1CCC(=O)NC1=O)C2=O (stereo not drawn) [lenalidomide] | – | – | – | – | – | induce HbF | induce HbF | – | – |
